# Reference: US11466044B2 (WAYNE STATE UNIVERSITY, priority 2017, dated 2022)
# Where two headings read alike, the source gives them in different places.
# What was measured:
# [1] = test system: E coli carrying specific resistance determinants; test: MIC by broth microdilution, E coli carrying specific resistance determinants; type: cell-based; details: Table 5 (Example 3)
# M. smegmatis SZ380 = test: MIC by broth microdilution, M. smegmatis; details: for MIC M. smegmatis SZ380 WT: Table 5 (Example 3)
# E coli wild type = test: MIC by broth microdilution, wild type E coli; type: cell-based; details: for MIC E. coli WT: Table 5 (Example 3); for MIC: Escherichia coli, ATCC25922, strain AG212 E. coli (ATCC25922), read-out: MIC AG212 E. coli
# M. abscessus = test: MIC by broth microdilution, M. abscessus; type: cell-based; details: Table 5 (Example 3)
# [2] = test system: Acinetobacter baumannii pittii AG225; test: MIC by broth microdilution, Acinetobacter baumannii; type: cell-based; details: strain AG225 Acinetobacter baumannii pittii
# [3] = test system: Enterobacter cloacae AG290; test: MIC by broth microdilution, Enterobacter cloacae; type: cell-based; details: strain AG290 Enterobacter cloacae; read-out: MIC AG290 E. cloacae
# [4] = test system: Klebsiella pneumonia AG215; test: MIC by broth microdilution, Klebsiella pneumonia; type: cell-based; details: Klebsiella pneumoniae; strain AG215 Klebsiella pneumonia; read-out: MIC AG215 K. pneumon
# P aeruginosa = test: MIC by broth microdilution, P aeruginosa isolates; type: cell-based, Pseudomonas aeruginosa; details: for MIC: strain AG220 Pseudomonas aeruginosa ATCC27853, read-out: MIC AG220 P. aerugin; for MIC50: Pseudomonas aeruginosa
# [5] = test system: wild type bacterial ribosomes; test: in-vitro translation assay, bacterial ribosomes; type: biochemical; details: bacterial ribosome; Table 3 (Example 2); read-out: IC50 Bac
# Text: (§1) The antiribosomal activity of these compounds was investigated with cell-free translation assays using both wild type bacterial ribosomes and hybrid ribosomes carrying eukaryotic decoding A sites enabling the prediction of selectivity.
# MRSA = test: MIC by broth microdilution, MRSA isolates; type: cell-based; details: Table 1 (Example 2)
# [6] = test system: mitochondrial ribosome (human chimeric); type: biochemical; details: mitochondrial; Table 3 (Example 2); read-out: IC50 Mit
# Text: as §1
# [7] = test system: cytosolic ribosome (human chimeric); type: biochemical; details: cytosolic; Table 3 (Example 2); read-out: IC50 Cyt
# Text: as §1
smiles,measurement,setting,value
"NCC[C@H](O)C(=O)N[C@@H]1C[C@H](N)[C@@H](O[C@H]2O[C@H](CN)[C@@H](O)[C@H](O)[C@H]2O)[C@H](O)[C@H]1O[C@H]1O[C@H](CO)[C@@H](O)[C@H](N)[C@H]1O [AMK, reference compound]",MIC E. coli AG106 AAC(2′)-Ia,[1]; AG106 AAC(2′)-Ia,2 µg/mL
same,MIC E. coli pGB2armA armA,[1]; pGB2armA armA,>128 μg/ml
same,MIC E. coli pH434 AAC(2′)-Ib,[1]; pH434 AAC(2′)-Ib,2 μg/ml
same,MIC M. smegmatis SZ380 WT,M. smegmatis SZ380,0.5 µg/mL
same,MIC E. coli WT,E coli wild type; WT,2 µg/mL
same,MIC M. abscessus ATCC 19977 WT,M. abscessus; ATCC 19977 WT,1 µg/mL
same,MIC M. abscessus clinical isolate,M. abscessus; clinical isolate,2 µg/mL
same,MIC M. abscessus engineered Δeis2,M. abscessus; engineered Δeis2,0.125 to 0.25 µg/mL
CCC[C@H]1C[C@H](N)[C@@H](O[C@@H]2C(N)C[C@@H](N)C(O)[C@H]2O[C@@H]2O[C@H](CNC=O)[C@H](O[C@H]3OC(CN)[C@@H](O)C(O)C3N)C2O)OC1CO (stereo partly drawn) [Compound 190],MIC,[2],> 64 µg/mL
same,MIC,[3],16 to 32 µg/mL
same,MIC,[4],32 µg/mL
same,MIC,P aeruginosa,> 64 µg/mL
same,MIC,E coli wild type,16 µg/mL
CCC(O)C1O[C@H](O[C@@H]2C(N)C[C@@H](N)C(O)[C@H]2O[C@@H]2O[C@H](CO)[C@H](O[C@H]3O[C@@H](CN)[C@@H](O)C(O)C3N)C2O)C(N)[C@@H](O)[C@@H]1O (stereo partly drawn) [Compound 192],MIC,[2],8 µg/mL
same,MIC,[3],2 to 4 µg/mL
same,MIC,[4],2 µg/mL
same,MIC,P aeruginosa,> 64 µg/mL
same,MIC,E coli wild type,4 µg/mL
CCO[C@@H]1C(CN)O[C@H](O[C@@H]2C(N)C[C@@H](N)C(O)[C@H]2O[C@@H]2O[C@H](CO)[C@H](OCCN)C2O)[C@@H](N)C1O (stereo partly drawn) [Compound 073],MIC,[2],8 µg/mL
same,MIC,[3],4 µg/mL
same,MIC,"M. smegmatis SZ380; Mycolicibacterium smegmatis, SZ380, read-out: MIC SZ380 M. smegmatis, strain SZ380 Mycobacterium smegmatis",8 µg/mL
same,MIC,[4],4 µg/mL
same,MIC,P aeruginosa,> 128 µg/mL
same,MIC,E coli wild type,8 µg/mL
NCC1O[C@H](O[C@@H]2C(O)[C@H](O[C@@H]3C(O)[C@H](N)CC(N)[C@H]3O[C@H]3OC(CO)[C@@H](CCO)C(O)[C@@H]3N)O[C@@H]2CO)C(N)C(O)[C@@H]1O (stereo partly drawn) [Compound 197],MIC,[2],2 µg/mL
same,MIC,[3],1 to 2 µg/mL
same,MIC,[4],1 µg/mL
same,MIC,P aeruginosa,32 µg/mL
same,MIC,E coli wild type,2 to 4 µg/mL
"CC(=O)O.NCC1OC(OC2C(CO)OC(OC3C(O)C(N)CC(N)C3OC3OC(CO)C(O)C(O)C3O)C2O)C(N)C(O)C1O (stereo not drawn) [Compound 118, 2′-Deamino-2′-hydroxy-paromomycin acetate salt]",MIC M. smegmatis SZ380 WT,M. smegmatis SZ380,>128 µg/mL
same,MIC E. coli WT,E coli wild type; WT,32 µg/mL
NCC1O[C@H](O[C@@H]2C(O)[C@H](O[C@@H]3C(O)[C@H](N)CC(N)[C@H]3O[C@H]3OC(CO)[C@@H](CCCO)C(O)[C@@H]3N)O[C@@H]2CO)C(N)C(O)[C@@H]1O (stereo partly drawn) [Compound 195],MIC,[2],8 µg/mL
same,MIC,[3],4 µg/mL
same,MIC,[4],2 to 4 µg/mL
same,MIC,P aeruginosa,64 µg/mL
same,MIC,E coli wild type,8 µg/mL
"CC1CC(O)C2O[C@H](O[C@@H]3C(N)C[C@@H](N)C(O)[C@H]3O[C@@H]3O[C@H](CO)[C@H](O[C@H]4O[C@@H](CN)[C@@H](O)C(O)C4N)C3O)C(N)[C@@H](O)[C@@H]2O1 (stereo partly drawn) [Compound 109, 4-O-(2′-Amino-4′,8′-anhydro-2′,7′,9′-trideoxy-D-erythro-α-D-gluco-nonapyranosyl)-5-O-[3-O-(2,6-diamino-2,6-dideoxy-β-L-idopyranosyl)-β-D-ribofuranosyl]-2-deoxystreptamine.5AcOH]",MIC SZ380 M. smegmatis,M. smegmatis SZ380; strain SZ380 Mycobacterium smegmatis,16 µg/mL
same,IC50,[5],470 nM
same,MIC50,"MRSA; Staphylococcus aureus, MRSA, strain AG42, read-out: MIC50 MRSA AG42",16 to 32 µg/mL
same,MIC50 MRSA AG38,MRSA; strain AG38,32 µg/mL
same,MIC50 MRSA AG39,MRSA; strain AG39,32 to 64 µg/mL
same,MIC50 MRSA AG44,MRSA; strain AG44,32 µg/mL
same,MIC50,"P aeruginosa; strain AG33, Table 1 (Example 2), read-out: MIC50 P aeruginosa AG33",> 128 µg/mL
same,MIC50,"P aeruginosa; strain AG86, Table 1 (Example 2), read-out: MIC50 P aeruginosa AG86",> 128 µg/mL
same,MIC50 P aeruginosa AG31,"P aeruginosa; strain AG31, Table 1 (Example 2)",>128 µg/mL
same,MIC50 P aeruginosa AG32,"P aeruginosa; strain AG32, Table 1 (Example 2)",>128 µg/mL
same,IC50,[6],193 µM
same,IC50,[7],169 µM
same,MIC50 E coli BM13 (AG06) wt,"E coli wild type; BM13 (AG06) wt, Table 2A (Example 2)",16 to 32 µg/mL
same,MIC WT,"E coli wild type; WT, Table 3 (Example 2)",16 to 32 µg/mL
same,MIC50 E coli pH430 WT,"E coli wild type; pH430 WT, Table 2B (Example 2)",16-32 μg/ml
same,MIC50 E coli AG01,"E coli wild type; strain AG01, Table 1 (Example 2)",128 µg/mL
same,MIC50 E coli AG03,"E coli wild type; strain AG03, Table 1 (Example 2)",64 to 128 µg/mL
same,MIC50 E coli AG55,"E coli wild type; strain AG55, Table 1 (Example 2)",64 to 128 µg/mL
